Test results taken from patent US9364457B2, “Method for manufacturing composition for lowering blood lipid and elevating high-density lipoprotein” (SunWay Biotech Co., Ltd., priority 2011, dated 2016).

Tests used:
[1] = test system: hamsters feed with high cholesterol diet; assay: Cholesterol parameters in blood of hamsters fed high cholesterol diet; type: in vivo; settings: ratio of LDL-C to HDL-C, hamsters on high cholesterol diet, 8 weeks
Experimental: Additionally, a composition containing monacolin K is utilized as a comparison group, which is called as MK for abbreviation.
Firstly, the experiment utilizes hamsters feed with high cholesterol diet as experimental animals, which are then feed with MS, AF, MS+AF, and MK for 8 weeks, and then each of cholesterol parameters in blood of the hamsters are analyzed. The cholesterol parameters include total cholesterol (TC), triglyceride (TG), high density lipoprotein cholesterol (HDL-C), low density lipoprotein cholesterol (LDL-C), ratio of LDL-C to HDL-C, and malondialdehyde (MDA). […] Additionally, a normal diet group is referred to as NOR, and a high cholesterol diet group is referred to as HC.

cholesterol biosynthesis = assay: Cell experiment on inhibition of cholesterol biosynthesis; type: cell-based; settings: cells treated with the same concentration, 100 ppb
Source text: In order to compare the inhibitory effect of cholesterol biosynthesis by monascin, ankaflavin and monacolin K, the present invention applies a cell experiment and treats cells with monascin, ankaflavin and monacolin K with the same concentration (100 ppb) for researching the influence of these ingredients on the cholesterol biosynthesis.

[2] = test system: lipid plaque on arterial vascular walls in the thoracic cavity; assay: Lipid plaque staining in arteries of high cholesterol diet animals; type: in vivo, hamsters; settings: high cholesterol diet for eight weeks, human-equivalent per day: MK 2.89 mg, MS 9.82 mg, AF 1.43 mg
Experimental: Firstly, the experiment utilizes hamsters feed with high cholesterol diet as experimental animals, which are then feed with MS, AF, MS+AF, and MK for 8 weeks, and then each of cholesterol parameters in blood of the hamsters are analyzed. The cholesterol parameters include total cholesterol (TC), triglyceride (TG), high density lipoprotein cholesterol (HDL-C), low density lipoprotein cholesterol (LDL-C), ratio of LDL-C to HDL-C, and malondialdehyde (MDA). The amount of the MK taken by the experimental animals is equivalent to 2.89 mg taken by an adult human per day. Additionally, a normal diet group is referred to as NOR, and a high cholesterol diet group is referred to as HC.
Another important indicator for evaluating atherosclerosis is the analysis of lipid plaque staining in arteries, and the results of lipid plaque staining can indicate that whether lipid plaque deposits on arterial vascular walls. Large amounts of lipid with over-oxidation can cause bulk deposition of foam cells, and then the vascular walls lose elasticity and large amounts of lipid plaque are deposited, so as to lead to atherosclerosis. Referring to FIG. 11, which is a diagram of quantitative results of the lipid plaque staining experiment.

Structure (SMILES): CC[C@H](C)C(=O)O[C@H]1C[C@@H](C)C=C2C=C[C@H](C)[C@H](CC[C@@H]3C[C@@H](O)CC(=O)O3)[C@H]21 [MK, monacolin K]
- LDL/HDL [1]: 0.489
- inhibition of cholesterol biosynthesis (FIG. 12) (cholesterol biosynthesis): weakest effect
- amount of lipid plaque on arterial vascular walls (lipid plaque staining, FIG. 11) [2]: can lower the amount of lipid plaque
